Results reported in publication PMC3544981 (Pharmacology, biochemistry, and behavior, 2012).
Values joined by “and” are separate entries in the source; they are usually repeats but may differ in a detail not shown here. Equal entries are not always repeated. Where two headings read alike, the source gives them in different places.

Experiments:
[1] = target: T1, α4β2*-nAChR binding sites (Mus musculus, UniProt O70174+Q9ERK7, V287L); assay: [125I]-Epibatidine binding to membrane fragments, cortex; settings: read-out: Kd for [125I]-epibatidine, MT mice
T1 sequence (O70174 31-629): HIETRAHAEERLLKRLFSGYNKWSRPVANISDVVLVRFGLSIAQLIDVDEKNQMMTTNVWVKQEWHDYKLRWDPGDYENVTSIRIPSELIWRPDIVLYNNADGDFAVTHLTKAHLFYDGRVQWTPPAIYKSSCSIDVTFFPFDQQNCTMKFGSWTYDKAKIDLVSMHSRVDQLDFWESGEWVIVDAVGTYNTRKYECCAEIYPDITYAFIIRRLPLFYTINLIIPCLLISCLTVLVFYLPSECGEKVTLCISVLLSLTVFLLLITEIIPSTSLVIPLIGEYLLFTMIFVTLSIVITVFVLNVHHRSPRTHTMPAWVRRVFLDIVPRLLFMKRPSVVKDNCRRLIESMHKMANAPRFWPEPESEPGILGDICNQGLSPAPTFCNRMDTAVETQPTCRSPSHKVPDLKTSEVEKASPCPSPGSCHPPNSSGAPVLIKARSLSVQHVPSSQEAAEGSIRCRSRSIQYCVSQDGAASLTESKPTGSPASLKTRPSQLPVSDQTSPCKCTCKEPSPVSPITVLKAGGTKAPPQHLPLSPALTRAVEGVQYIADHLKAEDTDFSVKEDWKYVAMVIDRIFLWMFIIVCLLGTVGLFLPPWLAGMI
T1 sequence (Q9ERK7 26-501 V287L): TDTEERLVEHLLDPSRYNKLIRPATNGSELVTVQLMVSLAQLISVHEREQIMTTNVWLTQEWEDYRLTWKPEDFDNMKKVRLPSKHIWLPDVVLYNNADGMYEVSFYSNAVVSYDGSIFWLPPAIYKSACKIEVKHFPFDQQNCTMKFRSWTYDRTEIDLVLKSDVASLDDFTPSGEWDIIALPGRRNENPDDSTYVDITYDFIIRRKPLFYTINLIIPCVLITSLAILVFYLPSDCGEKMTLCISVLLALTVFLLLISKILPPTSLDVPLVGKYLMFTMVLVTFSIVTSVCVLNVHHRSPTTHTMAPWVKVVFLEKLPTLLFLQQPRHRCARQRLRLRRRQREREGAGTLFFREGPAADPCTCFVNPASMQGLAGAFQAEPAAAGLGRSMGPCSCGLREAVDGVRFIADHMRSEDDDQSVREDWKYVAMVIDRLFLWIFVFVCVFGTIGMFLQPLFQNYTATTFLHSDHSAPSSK

[2] = target: T2, α4β2*-nAChR binding sites (Mus musculus, UniProt O70174+Q9ERK7); assay: as above; settings: read-out: Kd for [125I]-epibatidine, WT mice
T2 sequence (Q9ERK7 26-501): as the sequence (Q9ERK7 26-501 V287L) above, with L262V counted along it
T2 sequence (O70174 31-629): as the sequence (O70174 31-629) above

[3] = target: α4β2*-nAChR binding sites; assay: as above; design: species or system mouse; settings: read-out: Kd for [125I]-epibatidine, HT mice
[4] = target: T1, α4β2*-nAChR binding sites; assay: [125I]-Epibatidine binding to membrane fragments, thalamus; settings: read-out: Kd for [125I]-epibatidine, MT mice
[5] = target: T2, α4β2*-nAChR binding sites; assay: as above; settings: read-out: Kd for [125I]-epibatidine, WT mice
[6] = target: α4β2*-nAChR binding sites; assay: as above; design: species or system mouse; settings: read-out: Kd for [125I]-epibatidine, HT mice
[7] = target: α6β2*-nAChR (Mus musculus, UniProt Q9ERK7+Q9R0W9, V287L); settings: striatum, MT mice
Chain of α6β2*-nAChR (Mus musculus, UniProt Q9ERK7+Q9R0W9, V287L) (Q9R0W9 31-494): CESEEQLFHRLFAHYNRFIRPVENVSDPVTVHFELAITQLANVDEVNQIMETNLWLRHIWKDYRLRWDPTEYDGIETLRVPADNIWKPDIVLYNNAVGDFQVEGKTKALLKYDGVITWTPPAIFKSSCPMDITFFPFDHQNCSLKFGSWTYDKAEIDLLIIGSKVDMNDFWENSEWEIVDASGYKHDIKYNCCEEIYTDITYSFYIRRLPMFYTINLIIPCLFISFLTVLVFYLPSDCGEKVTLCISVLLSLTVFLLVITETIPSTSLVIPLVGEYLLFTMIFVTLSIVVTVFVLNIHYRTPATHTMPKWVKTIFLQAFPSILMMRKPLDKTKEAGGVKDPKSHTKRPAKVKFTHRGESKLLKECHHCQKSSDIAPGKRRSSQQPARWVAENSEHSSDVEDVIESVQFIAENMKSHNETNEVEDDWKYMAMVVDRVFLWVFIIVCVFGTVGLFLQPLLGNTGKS
Chain of α6β2*-nAChR (Mus musculus, UniProt Q9ERK7+Q9R0W9, V287L) (Q9ERK7 26-501 V287L): as the sequence (Q9ERK7 26-501 V287L) above

[8] = target: α6β2*-nAChR (Mus musculus, UniProt Q9ERK7+Q9R0W9)
[9] = target: T3, α4β2*-nAChRs (Mus musculus, UniProt O70174+Q9ERK7, V287L)
T3 sequence (O70174 31-629): as the sequence (O70174 31-629) above
T3 sequence (Q9ERK7 26-501 V287L): as the sequence (Q9ERK7 26-501 V287L) above

[10] = target: T4, α4β2*-nAChRs (Mus musculus, UniProt O70174+Q9ERK7)
[11] = target: α4β2*-nAChR (Mus musculus, UniProt O70174+Q9ERK7); format: biochemical
Chain of α4β2*-nAChR (O70174 31-629): as the sequence (O70174 31-629) above
Chain of α4β2*-nAChR (Q9ERK7 26-501): as the sequence (Q9ERK7 26-501 V287L) above, with L262V counted along it

[12] = target: T3, α4β2*-nAChRs; format: biochemical
[13] = target: T4, α4β2*-nAChRs; format: biochemical
[14] = tested on: α4S248F mutation; settings: 2007, cited from earlier work
[15] = tested on: β2VL mice; settings: mouse, in vivo, ip, 5 mg/kg
[16] = tested on: β2VL mice; settings: male, mouse, in vivo, ip, 2 mg/kg
[17] = β2VL knock-in, homozygous mutant (MT)

Ic1ccc(C2CC3CCC2N3)cn1 (stereo not shown) [[^125I]-epibatidine]
Kd [1]: 0.13 ± 0.02 nM | Kd [2]: 0.15 ± 0.03 nM | Kd [3]: 0.12 ± 0.02 nM | Kd [4]: 0.11 ± 0.03 nM | Kd [5]: 0.15 ± 0.06 nM | Kd [6]: 0.08 ± 0.01 nM

CC(=O)OCC[N+](C)(C)C [ACh, acetylcholine iodide]
α-CtxMII-sensitive maximal [3H]-dopamine release [7]: 3.73±0.29 | decrease in the α-CtxMII sensitive [3H]-dopamine release [8]: 23% | α-CtxMII-sensitive maximal [3H]-dopamine release [8]: 3.31±0.30 | α-CtxMII-sensitive maximal [3H]-dopamine release ([8]; striatum, WT mice): 4.82±0.30 | maximum ACh-stimulated [3H]-GABA release [9]: 2.11±0.14 | decrease in EC50, ACh-stimulated [3H]-GABA release [10]: approximately 10 fold | maximum ACh-stimulated [3H]-GABA release [10]: 1.96±0.17 and 2.25±0.16 | reduction in maximal ACh-stimulated [3H]-GABA release [10]: 0% | control ACh-stimulated 86Rb+ efflux [11]: 5.64±1.43 and 3.35±0.47 | maximum ACh-stimulated [3H]-GABA release [12]: 2.64±0.13 | maximum ACh-stimulated [3H]-GABA release [13]: 3.31±0.24 and 3.69±0.19 | reduction in maximal ACh-stimulated [3H]-GABA release [13]: 20% | decrease in maximal ACh-stimulated [3H]-GABA release ([14]; α4S248F HT mice ref Teper et al.): 60% | decrease in maximal ACh-stimulated [3H]-GABA release ([14]; α4S248F MT mice ref Teper et al.): 80%

CN1CCC[C@H]1c1cccnc1 [nicotine]
interval from DAC to spike-wave seizure with tonic-clonic convulsions [15]: 2 to 3 min | time to tonic-clonic convulsion with EEG spike-wave discharges post-injection [15]: 3~4 min | mice displaying diagonal retrograde tail [16]: 2/19 | mice displaying tonic forelimb digit splaying [16]: 1/19 | mice displaying tonic forelimb extension [16]: 1/19 | mice exhibiting forelimb clonus [16]: 0/19 | post-injection latency for onset of diagonal retrograde tail [16]: 31 ± 8 s | mice displaying diagonal retrograde tail [16, 17]: 19/19 | mice displaying tonic forelimb digit splaying [16, 17]: 16/19 | mice displaying tonic forelimb extension [16, 17]: 18/19 | mice exhibiting forelimb clonus [16, 17]: 12/19 | post-injection latency for onset of forelimb clonus [16, 17]: 59 ± 7 s | post-injection latency for onset of tonic digit splaying [16, 17]: 59 ± 6 s | post-injection latency for onset of tonic forelimb extension [16, 17]: 57 ± 5 s
